Measurements: patent US6485941B1, “Inhibition of the carboxyltransferase component of acetyl-CoA carboxylase, and the use of such inhibition in anti-cancer and anti-lipogenic therapies” (Board of Supervisors of Louisiana State University and …, priority 2002, dated 2002)

Assays:
[1] = target: T1, murine acetyl-CoA carboxylase (Mus musculus, UniProt Q5SWU9); test: Acetyl-CoA carboxylase activity in cell-free extracts of pre-adipocytes, compound added to extract; assay type: biochemical
T1 construct: endogenous in cells; host or cells: murine 3T3-L1 pre-adipocytes (cytosolic extract)
Experimental: (§1) The above procedure was modified to prepare extracts for enzymatic analysis. The non-denaturing buffer in that case contained 150 mM KCl instead of NaCl, and there was no Triton X-100, Nonidet P-40, nor any protease or phosphatase inhibitors in the buffer. The cell monolayers were scraped into this buffer, and were homogenized with 16 strokes in a Dounce homogenizer. The homogenates were centrifuged at 10,000 g for 5 minutes, and the supernatants were saved as cytosolic extract, quantitated, and used to assay acetyl-CoA carboxylase activity.
The activity of acetyl-CoA carboxylase from 3T3-L1 cell lysates was determined in a fixed-time assay using HPLC. HPLC is not normally used in this field, because cell lysates are mixtures of such a large number of different components; it would be more conventional to use an assay employing radioactivity. […] This assay will be useful in monitoring the progress and reaction of patients who are administered treatment in accordance with this invention.
(§2) Assays were performed by measuring the loss of acetyl-CoA, or the production of malonyl-CoA, at 5 minute intervals for 20 minutes, using reverse-phase HPLC. […] Rates were calculated by linear regression analysis of malonyl-CoA concentration as a function of time. […] Following termination of the reaction, the samples were centrifuged (3 min, 10,000 g) and then analyzed by HPLC. […]

[2] = target: T2, carboxyltransferase component of E. coli acetyl-CoA carboxylase (Escherichia coli, UniProt P0A9Q5+P0ABD5); test: Carboxyltransferase inhibition, assayed in the reverse direction with coupled spectrophotometric detection; assay type: biochemical
T2 construct: made in house; host or cells: E. coli overexpression strain (Blanchard et al. 1998; G. Waldrop, LSU)
T2 sequence (P0ABD5 1-319): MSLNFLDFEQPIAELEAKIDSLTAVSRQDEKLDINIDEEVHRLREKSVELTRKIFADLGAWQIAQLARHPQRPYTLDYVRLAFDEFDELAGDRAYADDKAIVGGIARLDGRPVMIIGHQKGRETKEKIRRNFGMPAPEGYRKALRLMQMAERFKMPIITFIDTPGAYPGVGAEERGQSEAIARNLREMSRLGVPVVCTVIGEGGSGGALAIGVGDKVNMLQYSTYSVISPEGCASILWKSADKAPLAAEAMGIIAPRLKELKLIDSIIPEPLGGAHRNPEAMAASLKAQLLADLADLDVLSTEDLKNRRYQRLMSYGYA
T2 sequence (P0A9Q5 1-304): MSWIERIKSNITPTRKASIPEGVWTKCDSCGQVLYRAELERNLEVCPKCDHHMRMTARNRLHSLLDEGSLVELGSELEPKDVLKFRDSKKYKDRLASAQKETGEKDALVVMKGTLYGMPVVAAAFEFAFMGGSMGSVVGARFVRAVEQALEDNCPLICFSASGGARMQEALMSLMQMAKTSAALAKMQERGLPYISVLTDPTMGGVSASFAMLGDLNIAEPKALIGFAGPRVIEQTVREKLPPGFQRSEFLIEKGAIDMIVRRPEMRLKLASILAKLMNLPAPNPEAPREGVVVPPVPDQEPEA
Experimental: Carboxyltransferase was purified from a strain of E. coli that overexpresses the genes encoding the α and β subunits of the enzyme. C. Blanchard et al., J. Biol. Chem. 273, 19140-19145 (1998). (E. coli strain available on request from G. Waldrop, Department of Biological Sciences, Louisiana State University, Baton Rouge, La.) The published procedure was modified slightly. Bacteria were grown to saturation at 37° C. in 1 L of LB medium in 2 L flasks, and were then induced with 1 g of lactose and incubated without shaking at 25° C. for 24 h. The concentration of carboxyltransferase was determined by the method of M. Bradford, Anal. Biochem. 72, 248-254 (1976) using bovine serum albumin as a standard.
(§3) Carboxyltransferase was assayed in the reverse direction: the production of acetyl-CoA was detected by using the coupling enzymes malate dehydrogenase and citrate synthase, and the reduction of NAD^+ was measured spectrophotometrically by the method of C. Blanchard et al., J. Biol. Chem. 273, 19140-19145 (1998); and R. Guchhait et al., Methods Enzymol. 35, 32-37 (1975).
In Equations [1] and [2], v is the initial velocity, Vm is the maximal velocity, A is the substrate concentration, I is the concentration of inhibitor, Km is the Michaelis constant, Kis is the slope inhibition constant, and Kii is the intercept inhibition constant.
v=VmA/(Km(1+I/Kis)+A(1+I/Kii))
The activity of carboxyltransferase was measured in the reverse direction using malonyl-CoA and biocytin as substrates.

citrate synthase = test: Coupling enzyme control (NAD+ reduction after addition of acetyl-CoA); assay type: biochemical; settings: 0.6 mM compound
Experimental: as §3
(§4) The bisubstrate analog had previously been observed not to inhibit the activity of either of these coupling enzymes at 0.6 mM, a value three times higher than the highest concentration used in the inhibition studies.

malate dehydrogenase = test: as above; assay type: biochemical; settings: 0.6 mM compound
Experimental: as §3, §4

acetyl-CoA carboxylase = target: T3, acetyl-CoA carboxylase (Mus musculus, UniProt Q5SWU9); test: Acetyl-CoA carboxylase activity in lysates of treated pre-adipocytes (HPLC fixed-time assay); assay type: cell-based, murine; settings: pre-adipocytes treated with 10 μM for four hours; DMSO control 1.40 nmol/min-mg
T3 construct: endogenous in cells; host or cells: murine 3T3-L1 pre-adipocytes (cytosolic extract)
Experimental: as §1
The activity of acetyl-CoA carboxylase from 3T3-L1 cell lysates was determined in a fixed-time assay using HPLC. HPLC is not normally used in this field, because cell lysates are mixtures of such a large number of different components; it would be more conventional to use an assay employing radioactivity. […]
as §2
We also examined whether there was a concomitant decrease in the activity of acetyl-CoA carboxylase. […] Acetyl-CoA carboxylase activity was measured by analytical reverse phase HPLC. […]

3T3-L1 pre-adipocytes = test: 3T3-L1 adipocyte differentiation (Western blot of transcription factors, Oil Red O staining); assay type: cell-based, murine
Experimental: Murine 3T3-L1 pre-adipocytes (a kind gift from Howard Green, Harvard University, Cambridge, Mass.) were plated and grown to 2 days post-confluence in DMEM supplemented with 10% bovine serum. Medium was changed every 48 hours. Cells were induced to differentiate into adipocytes by changing the medium to DMEM supplemented with 10% fetal bovine serum (FBS), 0.5 mM 3-isobutyl-1-methylxanthine (MIX) (Sigma), 1 μM dexamethasone (DEX) (Sigma), and 1.7 μM insulin (Sigma). After 48 hours this medium was replaced with DMEM supplemented with 10% FBS, and the cells were maintained in this medium until they were used in experiments. Compound 2 was dissolved in DMSO and added to the cell culture media at a 1:1000 dilution for experiments. Vehicle additions were also conducted for each experiment as controls.
Monolayers of 3T3-L1 adipocytes were rinsed with phosphate-buffered saline (PBS) and then harvested in a non-denaturing buffer containing 150 mM NaCl, 10 mM Tris, pH 7.4, 1 mM EGTA, 1 mM EDTA, 1% Triton-X 100, 0.5% Nonidet P-40 detergent (Sigma), 1 μM PMSF (phenylmethylsulfonyl fluoride protease inhibitor, Sigma), 1 μM pepstatin (Sigma), 50 trypsin inhibitory milliunits of aprotinin (Sigma), 10 μM leupeptin (Sigma), and 2 mM sodium vanadate (Fisher Chemical, Fair Lawn, […]) for Western blot analysis. Samples were extracted for 30 minutes on ice and centrifuged at 10,000 g at 4° C. for 15 minutes. Supernatants containing whole cell extracts were analyzed for protein content using a BCA kit (Pierce) according to the manufacturer's instructions.
Proteins were separated in 5%, 7.5%, or 12% polyacrylamide (National Diagnostics, […].) gel containing sodium dodecyl sulfate (SDS) following the procedure of U. Laemmli, Nature 227, 680-685 (1970). Proteins were then transferred to nitrocellulose (BioRad, Atlanta, Ga.) in 25 mM Tris, 192 mM glycine, and 20% methanol. Following transfer, the membrane was blocked in 4% milk (non-fat, dried milk reconstituted in water at a 4% concentration (w/v)) for 1 hour at room temperature. Results were visualized with horseradish peroxidase (HRP)-conjugated secondary antibodies (Sigma) and enhanced chemiluminescence (Pierce).
The murine 3T3-L1 pre-adipocyte cell line was used to examine the effects of Compound 2 on adipocyte differentiation. The 3T3-L1 cell line can be induced to differentiate in culture from fibroblasts, or pre-adipocytes, into cells with the morphological and biochemical properties of adipocytes. […] For example, these cells accumulate lipids, respond to insulin, and secrete leptin. The 3T3-L1 pre-adipocytes were first grown to a confluent monolayer. At two days post-confluence, the cells were exposed to a “differentiation cocktail” (FBS, MIX, DEX, and insulin) for 48 hours, and the cells were then maintained in 10% FBS in DMEM in the presence or absence of various doses of Compound 2. A vehicle addition of DMSO was also performed as a control. Compound 2 or DMSO was added in a 1-to-1000 dilution to the cell culture medium every 24 hours. One week after treatment with the differentiation cocktail, whole cell extracts were prepared, and cells were stained with Oil Red O to assess lipid accumulation.
The differentiation of pre-adipocytes into adipocytes has been attributed, in part, to increased expression of several transcription factors, including PPARγ and STATs 1, 5A, and 5B. To observe the differentiation of pre-adipocytes into adipocytes, the expression of these transcription factors was examined by Western blot analysis (data not shown). Adipogenesis was also assessed by examining lipid accumulation, as judged by Oil Red O staining (data not shown).
Whole cell extracts were prepared one week after the induction of differentiation in the presence of 0, 1, 2, 4, 8, or 17 μM doses of Compound 2, or treatment with DMSO (vehicle), with treatments in each case repeated every 24 hours. […]

[3] = tested on: breast cancer cell line MCF7; test: MCF7 cellular proliferation (counting viable cells as a function of time); assay type: cell-based; settings: preliminary data; number of viable cells as a function of time
Source text: Cancer cells also typically have high levels of fatty acid synthesis. Various inhibitors of fatty acid synthesis are currently in clinical trials for the treatment of breast cancers. Since acetyl-CoA carboxylase—not fatty acid synthase—is the rate-limiting enzyme in fat synthesis, the inhibition of acetyl-CoA carboxylase with the bisubstrate analog should be at least as effective in treating cancers as fatty acid synthesis inhibitors, if not more so.

Compound	effect on acetyl-CoA carboxylase activity in cell-free extracts [1]	Ki [2] [µM]	binding energy of the inhibitor relative to the sum of binding energies of the two substrates (times less) [2]	factor by which the product of the substrate dissociation constants exceeds the inhibition constant ([2]; Km of malonyl-CoA and biocytin used as dissociation constants)	inhibition pattern with malonyl-CoA as the variable substrate ([2]; biocytin held constant at 6.0 mM)	inhibition pattern with biocytin as the variable substrate ([2]; malonyl-CoA held constant at 0.1 mM)	inhibition of coupling enzyme citrate synthase (citrate synthase)	inhibition of coupling enzyme malate dehydrogenase (malate dehydrogenase)	Km ([2]; substrate of carboxyltransferase, reverse direction) [mM]	activity of acetyl-CoA carboxylase from treated cells (acetyl-CoA carboxylase) [nmol malonyl-CoA/min-mg]	adipocyte differentiation of 3T3-L1 cells (3T3-L1 pre-adipocytes; 0, 1, 2, 4, 8 or 17 μM, repeated every 24 hours, one week)	induction of PPARγ expression (Western blotting) (3T3-L1 pre-adipocytes; 17 μM or 8 μM)	lipid accumulation (Oil Red O staining) (3T3-L1 pre-adipocytes; 17 μM or 8 μM)	levels of STAT3 (3T3-L1 pre-adipocytes; Western blot)	expression of STATs 1 and 5A (3T3-L1 pre-adipocytes; Western blot, during induced differentiation)	reversibility of inhibition of differentiation (3T3-L1 pre-adipocytes; compound not re-added at 24 hour intervals after initial treatment)	cellular proliferation of MCF7 [3]
CC(C)(COP(=O)(O)OP(=O)(O)OCC1OC(n2cnc3c(N)ncnc32)C(O)C1OP(=O)(O)O)C(O)C(=O)NCCC(=O)NCCSCC(=O)N1C(=O)NC2C(CCCCC(=O)OCc3ccccc3)SCC21 (stereo not drawn) [Compound 1]	inhibited murine acetyl-CoA carboxylase activity	23 ± 2	about 1.3	about 35	competitive inhibition	noncompetitive inhibition	No decrease in activity	No decrease in activity	–	–	–	–	–	–	–	–	–
N[C@@H](CCCCNC(=O)CCCC[C@@H]1SC[C@@H]2NC(=O)N[C@@H]21)C(=O)O [biocytin]	–	–	–	–	–	–	–	–	8	–	–	–	–	–	–	–	–
phenylmethyl 5-(6,8-diaza-6-(2-X-acetyl)-7-oxo-3-thiabicyclo[3.3.0]oct-2-yl)pentanoate [Compound 2]	had no effect	–	–	–	–	–	–	–	–	0.30	inhibited adipocyte differentiation of 3T3-L1 cells in a dose-dependent manner	blocked the induction of PPARγ expression	blocked lipid accumulation	unaffected	inhibited in a dose-dependent manner	reversible	inhibited cellular proliferation in that cell line in a dose-dependent manner
